# In ChEMBL document CHEMBL5107971, “RpoN-Based stapled peptides with improved DNA binding suppress Pseudomonas aeruginosa virulence” (RSC Med Chem, 2022):
# Activity calls are given as the source filed them. The calls are words filed in the database; no cut-off is given here. Numbered stars: 1 amine (or outer) side, 2 acyl side, 3 side chain; on linkers, the order of the positions; unused ones are H or OH. Bridge positions count the residues as written; N and C are the ends. Square brackets hold non-standard residues; d marks the D form. Peptide text beside a SMILES is read from it. X1 = CC(C)[C@@H](CN[*:1])C(=O)[*:2]; S5 = C=CCCC[C@](C)(N)C(=O)O; Nle = CCCC[C@H](N)C(=O)O; Orn = NCCC[C@H](N)C(=O)O; βAla = NCCC(=O)O
# Experiments:
# [1] = tested on: DNA; assay: Inhibition of RpoN-mediated GlnAp2 transcription in Escherichia coli XL-1 Blue expressing GFP assessed as decrease in GFP levels at 10 uM incubated for 4 hrs under minimal nitrogen media by fluorescence based assay relative to control; assay type: nucleic-acid assay
# [2] = Toxicity in Galleria mellonella larvae assessed as survivability at 10 mg/kg administered intra-hemocoelicly and measured after 24 hrs; assay type: organism-based; details: in vivo, other
# [3] = tested on: Pseudomonas aeruginosa; assay: Antibacterial activity against Pseudomonas aeruginosa infected in Galleria mellonella larvae assessed as enhancement of survival rate at 10 mg/kg administered intra-hemocoelicly and measured after 24 hrs relative to control; assay type: functional
# [4] = Hemolytic activity in human RBC at 100 uM measured after 1 hrs relative to control; assay type: toxicity, cell-based, Erythrocyte; details: red blood cells (erythrocytes), read-out: Activity
# [5] = biological target: dsDNA; assay: Binding affinity to FITC-labelled dsDNA (unknown origin) assessed as dissociation constant incubated for 10 mins by fluorescence polarization assay; assay type: nucleic-acid assay
# [6] = tested on: Pseudomonas aeruginosa; assay: Antibacterial activity against Pseudomonas aeruginosa assessed as inhibition of cell growth upto 32 ug/ml incubated overnight by microtiter broth dilution assay; assay type: functional; details: dose <= 32 µg/ml
# [7] = tested on: Pseudomonas aeruginosa; assay: Antibacterial activity against Pseudomonas aeruginosa infected in Galleria mellonella larvae assessed as enhancement of survival rate at 10 mg/kg administered intra-hemocoelicly and measured after 36 hrs relative to control; assay type: functional
# [8] = tested on: DNA; assay: Binding affinity to Escherichia coli GlnAp2 labelled with FITC assessed as dissociation constant incubated for 10 mins by fluorescence polarization assay; assay type: nucleic-acid assay
SMILES,inhibition [1],Activity [2],Activity [3],"hemolysis at 1 h, 100 µM [4]",Kd [5],MIC [6],Activity [7],Kd [8]
CCCC[C@H](NC(=O)[C@H](CCC(=O)O)NC(=O)[C@H](CCCNC(=N)N)NC(=O)[C@@H](Cc1ccc(O)cc1)NC(=O)[C@H](CCCCN)NC(=O)[C@H](C)NC(=O)[C@]1(C)CCC/C=C\CCC[C@](C)(NC(=O)[C@@H](NC(=O)[C@H](CCCCN)NC(=O)CCNC(C)=O)C(C)C)C(=O)N[C@@H](CCCNC(=N)N)C(=O)N[C@@H](CCCNC(=N)N)C(=O)N[C@@H]([C@@H](C)O)C(=O)N1)C(=O)N[C@@H](CC(C)C)C(N)=O,Active,–,–,–,–,–,–,–
CCCC[C@H](NC(=O)[C@H](CCC(=O)O)NC(=O)[C@H](CCCNC(=N)N)NC(=O)[C@H](Cc1ccc(O)cc1)NC(=O)[C@H](CCCCN)NC(=O)CNC(=O)[C@]1(C)CCC/C=C\CCC[C@](C)(NC(=O)[C@@H](NC(=O)[C@H](CCCCN)NC(=O)[C@H](Cc2ccccc2)NC(=O)CCNC(C)=O)C(C)C)C(=O)N[C@@H](CCCNC(=N)N)C(=O)N[C@@H](CCCNC(=N)N)C(=O)N[C@@H]([C@@H](C)O)C(=O)N1)C(=O)N[C@@H](CC(C)C)C(N)=O (Ac-[βAla]FKV[S5]RRT[S5]GKYRE[Nle]L-NH2; staple (Z) 5-9),Active,Non-Toxic,80%,0.53%,376 nM,> 32 µg/mL,10%,–
CCCC[C@H](NC(=O)[C@H](CCC(=O)O)NC(=O)[C@H](CCCNC(=N)N)NC(=O)[C@H](Cc1ccc(O)cc1)NC(=O)[C@H](CCCCN)NC(=O)[C@H](C)NC(=O)[C@]1(C)CCC/C=C\CCC[C@](C)(NC(=O)[C@@H](NC(=O)[C@H](CCCCN)NC(=O)[C@H](Cc2ccccc2)NC(=O)CCNC(C)=O)C(C)C)C(=O)N[C@@H](CCCCN)C(=O)N[C@@H](CCCNC(=N)N)C(=O)N[C@@H]([C@@H](C)O)C(=O)N1)C(=O)N[C@@H](CC(C)C)C(N)=O (Ac-[βAla]FKV[S5]KRT[S5]AKYRE[Nle]L-NH2; staple (Z) 5-9),Active,–,–,3.3%,1680 nM,> 32 µg/mL,–,–
CCCC[C@H](NC(=O)[C@H](CCC(=O)O)NC(=O)[C@H](CCCNC(=N)N)NC(=O)[C@H](Cc1ccc(O)cc1)NC(=O)[C@H](CCCCN)NC(=O)[C@H](C)NC(=O)[C@]1(C)CCC/C=C\CCC[C@](C)(NC(=O)[C@H](CNC(=O)[C@H](CCCCN)NC(=O)[C@H](Cc2ccccc2)NC(=O)CCNC(C)=O)C(C)C)C(=O)N[C@@H](CCCNC(=N)N)C(=O)N[C@@H](CCCNC(=N)N)C(=O)N[C@@H]([C@@H](C)O)C(=O)N1)C(N)=O (Ac-[βAla]FK[X1][S5]RRT[S5]AKYRE[Nle]-NH2; staple (Z) 5-9),Active,Non-Toxic,Active,35%,385 nM,> 32 µg/mL,–,–
CCCC[C@H](NC(=O)[C@H](CCC(=O)O)NC(=O)[C@H](CCCNC(=N)N)NC(=O)[C@]1(C)CCC/C=C\CCC[C@](C)(NC(=O)[C@H](CCCNC(=N)N)NC(=O)[C@H](CCCNC(=N)N)NC(=O)[C@H](C)NC(=O)[C@@H](NC(=O)[C@H](CCCCN)NC(=O)[C@H](Cc2ccccc2)NC(=O)CCNC(C)=O)C(C)C)C(=O)N[C@@H](C(C)C)C(=O)N[C@@H](C)C(=O)N[C@@H](CCCCN)C(=O)N1)C(=O)N[C@@H](CC(C)C)C(N)=O (Ac-[βAla]FKVARR[S5]VAK[S5]RE[Nle]L-NH2; staple (Z) 8-12),Active,Non-Toxic,Active,10.7%,366 nM,> 32 µg/mL,–,–
CCCC[C@H](NC(=O)[C@H](CCC(=O)O)NC(=O)[C@H](CCCNC(=N)N)NC(=O)[C@H](Cc1ccc(O)cc1)NC(=O)[C@H](CCCCN)NC(=O)[C@H](C)NC(=O)[C@]1(C)CCC/C=C\CCC[C@](C)(NC(=O)[C@@H](NC(=O)[C@H](CCCNC(=N)N)NC(=O)[C@H](Cc2ccccc2)NC(=O)CCNC(C)=O)C(C)C)C(=O)N[C@@H](CCCNC(=N)N)C(=O)N[C@@H](CCCNC(=N)N)C(=O)N[C@@H]([C@@H](C)O)C(=O)N1)C(=O)N[C@@H](CC(C)C)C(N)=O (Ac-[βAla]FRV[S5]RRT[S5]AKYRE[Nle]L-NH2; staple (Z) 5-9),Active,Non-Toxic,80%,1.5%,346 nM,> 32 µg/mL,20%,–
CCCC[C@H](NC(=O)[C@H](CCC(=O)O)NC(=O)[C@H](CCCNC(=N)N)NC(=O)[C@H](Cc1ccc(O)cc1)NC(=O)[C@H](CCCCN)NC(=O)[C@H](C)NC(=O)[C@]1(C)CCC/C=C\CCC[C@](C)(NC(=O)[C@H](Cc2ccccc2)NC(=O)[C@H](CCCCN)NC(=O)[C@H](Cc2ccccc2)NC(=O)CCNC(C)=O)C(=O)N[C@@H](CCCNC(=N)N)C(=O)N[C@@H](CCCNC(=N)N)C(=O)N[C@@H]([C@@H](C)O)C(=O)N1)C(=O)N[C@@H](CC(C)C)C(N)=O (Ac-[βAla]FKF[S5]RRT[S5]AKYRE[Nle]L-NH2; staple (Z) 5-9),Active,–,–,–,–,–,–,–
CCCC[C@H](NC(=O)[C@H](CCC(=O)O)NC(=O)[C@H](CCCNC(=N)N)NC(=O)[C@H](Cc1ccc(O)cc1)NC(=O)[C@H](CCCCN)NC(=O)[C@H](C)NC(=O)[C@]1(C)CCC/C=C\CCC[C@](C)(NC(=O)[C@@H](NC(=O)[C@H](CCCCN)NC(=O)[C@H](Cc2ccccc2)NC(=O)CCNC(C)=O)C(C)C)C(=O)N[C@@H](CCCNC(=N)N)C(=O)N[C@@H](CCCCN)C(=O)N[C@@H]([C@@H](C)O)C(=O)N1)C(=O)N[C@@H](CC(C)C)C(N)=O (Ac-[βAla]FKV[S5]RKT[S5]AKYRE[Nle]L-NH2; staple (Z) 5-9),Active,–,–,3.3%,947 nM,> 32 µg/mL,–,–
CCCC[C@H](NC(=O)[C@H](CCC(=O)O)NC(=O)[C@H](CCCNC(=N)N)NC(=O)[C@H](Cc1ccc(O)cc1)NC(=O)[C@H](CCCCN)NC(=O)[C@H](C)NC(=O)[C@@H](NC(=O)[C@@H](NC(=O)[C@H](CCCNC(=N)N)NC(=O)[C@H](CCCNC(=N)N)NC(=O)[C@H](C)NC(=O)[C@@H](NC(=O)[C@H](CCCCN)NC(=O)[C@H](Cc1ccccc1)NC(=O)CCNC(C)=O)C(C)C)[C@@H](C)O)C(C)C)C(=O)N[C@@H](CC(C)C)C(N)=O (Ac-[βAla]FKVARRTVAKYRE[Nle]L-NH2),–,–,–,0.12%,–,–,–,–

# Continued, in another order:
inhibition [1],SMILES,Activity [2],Activity [3],"hemolysis at 1 h, 100 µM [4]",Kd [5],MIC [6],Activity [7],Kd [8]
Active,CCCC[C@H](NC(=O)[C@H](CCC(=O)O)NC(=O)[C@H](CCCNC(=N)N)NC(=O)[C@H](Cc1ccc(O)cc1)NC(=O)[C@H](CCCCN)NC(=O)[C@H](C)NC(=O)[C@]1(C)CCC/C=C\CCC[C@](C)(NC(=O)[C@H](C)NC(=O)[C@H](CCCCN)NC(=O)[C@H](Cc2ccccc2)NC(=O)CCNC(C)=O)C(=O)N[C@@H](CCCNC(=N)N)C(=O)N[C@@H](CCCNC(=N)N)C(=O)N[C@@H]([C@@H](C)O)C(=O)N1)C(=O)N[C@@H](CC(C)C)C(N)=O (Ac-[βAla]FKA[S5]RRT[S5]AKYRE[Nle]L-NH2; staple (Z) 5-9),–,–,–,–,–,–,–
Active,CCCC[C@H](NC(=O)[C@H](CCC(=O)O)NC(=O)[C@H](CCCNC(=N)N)NC(=O)[C@H](Cc1ccc(O)cc1)NC(=O)[C@H](CCCNC(=N)N)NC(=O)[C@H](C)NC(=O)[C@]1(C)CCC/C=C\CCC[C@](C)(NC(=O)[C@@H](NC(=O)[C@H](CCCCN)NC(=O)[C@H](Cc2ccccc2)NC(=O)CCNC(C)=O)C(C)C)C(=O)N[C@@H](CCCNC(=N)N)C(=O)N[C@@H](CCCNC(=N)N)C(=O)N[C@@H]([C@@H](C)O)C(=O)N1)C(=O)N[C@@H](CC(C)C)C(N)=O (Ac-[βAla]FKV[S5]RRT[S5]ARYRE[Nle]L-NH2; staple (Z) 5-9),–,–,–,–,–,–,–
Active,CCCC[C@H](NC(=O)[C@H](CCC(=O)O)NC(=O)[C@H](CCCNC(=N)N)NC(=O)[C@H](Cc1ccc(O)cc1)NC(=O)[C@H](CCCCN)NC(=O)[C@@H](NC(=O)[C@]1(C)CCC/C=C\CCC[C@](C)(NC(=O)[C@H](C)NC(=O)[C@H](CCCCN)NC(=O)[C@H](Cc2ccccc2)NC(=O)CCNC(C)=O)C(=O)N[C@@H](CCCNC(=N)N)C(=O)N[C@@H](CCCNC(=N)N)C(=O)N[C@@H]([C@@H](C)O)C(=O)N1)C(C)C)C(=O)N[C@@H](CC(C)C)C(N)=O (Ac-[βAla]FKA[S5]RRT[S5]VKYRE[Nle]L-NH2; staple (Z) 5-9),–,–,–,–,–,–,–
75%,CCCC[C@H](NC(=O)[C@H](CCC(=O)O)NC(=O)[C@H](CCCNC(=N)N)NC(=O)[C@H](Cc1ccc(O)cc1)NC(=O)[C@H](CCCCN)NC(=O)[C@H](C)NC(=O)[C@]1(C)CCC/C=C\CCC[C@](C)(NC(=O)[C@@H](NC(=O)[C@H](CCCCN)NC(=O)[C@H](Cc2ccccc2)NC(=O)CCNC(C)=O)C(C)C)C(=O)N[C@@H](CCCNC(=N)N)C(=O)N[C@@H](CCCNC(=N)N)C(=O)N[C@@H]([C@@H](C)O)C(=O)N1)C(=O)N[C@@H](CC(C)C)C(N)=O (Ac-[βAla]FKV[S5]RRT[S5]AKYRE[Nle]L-NH2; staple (Z) 5-9),Non-Toxic,–,6.6%,834 nM,> 32 µg/mL,–,1140 nM
Active,CCCC[C@H](NC(=O)[C@H](CCC(=O)O)NC(=O)[C@H](CCCNC(=N)N)NC(=O)[C@H](Cc1ccc(O)cc1)NC(=O)[C@H](CCCCN)NC(=O)[C@H](C)NC(=O)[C@]1(C)CCC/C=C\CCC[C@](C)(NC(=O)[C@@H](NC(=O)[C@H](CCCN)NC(=O)[C@H](Cc2ccccc2)NC(=O)CCNC(C)=O)C(C)C)C(=O)N[C@@H](CCCNC(=N)N)C(=O)N[C@@H](CCCNC(=N)N)C(=O)N[C@@H]([C@@H](C)O)C(=O)N1)C(=O)N[C@@H](CC(C)C)C(N)=O (Ac-[βAla]F[Orn]V[S5]RRT[S5]AKYRE[Nle]L-NH2; staple (Z) 5-9),–,–,–,–,–,–,–
